Assay results reported in ChEMBL document CHEMBL1201862, “PubChem BioAssay data set” (2004).
Each block holds one molecule with its values, some of them ahead of it. Activity calls are given as the source filed them.

Key:
Protein Tat = biological target: T1, Protein Tat (Human immunodeficiency virus type 1 group M subtype B (isolate HXB2)(HIV-1), UniProt P04608); type: functional;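 also: tat binding to TAR RNA read out by fluorescence polarization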
T1 sequence (P04608 whole entry): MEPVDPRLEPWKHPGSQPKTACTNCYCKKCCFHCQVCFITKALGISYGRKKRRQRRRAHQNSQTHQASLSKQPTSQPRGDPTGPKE

[1] = biological target: Mitogen-activated protein kinase 10 (Homo sapiens, UniProt P53779); assay: Dose response biochemical screening assay for inhibitors of c-Jun N-Terminal Kinase 3 (JNK3). [Related pubchem assays: 746 ]
Sequence of Mitogen-activated protein kinase 10 (P53779 whole entry): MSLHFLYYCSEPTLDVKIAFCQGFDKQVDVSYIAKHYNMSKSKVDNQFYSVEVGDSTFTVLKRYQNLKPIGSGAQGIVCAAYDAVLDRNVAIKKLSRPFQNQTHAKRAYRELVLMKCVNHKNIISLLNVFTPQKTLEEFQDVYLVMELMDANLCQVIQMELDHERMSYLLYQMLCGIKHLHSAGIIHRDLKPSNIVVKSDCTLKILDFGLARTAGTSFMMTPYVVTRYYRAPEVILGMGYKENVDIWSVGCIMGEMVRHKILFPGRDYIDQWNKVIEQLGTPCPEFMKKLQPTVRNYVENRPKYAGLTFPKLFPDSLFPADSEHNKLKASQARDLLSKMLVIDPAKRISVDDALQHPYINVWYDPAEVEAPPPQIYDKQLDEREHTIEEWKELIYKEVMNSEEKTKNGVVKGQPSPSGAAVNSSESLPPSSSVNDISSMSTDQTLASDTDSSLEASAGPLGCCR

Vero = assay: mammalian cell viability reduction – secondary assay, cytotoxicity control for West Nile virus antiviral project, dose response (AID 1650); type: functional; conditions: Chlorocebus sabaeus
[2] = Luminescence Cell-Based Dose Retest to Confirm Inhibitors of Cancer Stem Cells. [Related pubchem assays (depositor defined):AID2717, AID2721]; type: functional; conditions: Homo sapiens
[3] = biological target: T2, Tyrosine-protein phosphatase non-receptor type 7 (Homo sapiens, UniProt P35236); assay: HePTP tyrosine phosphatase activity blockers – biochemical, absorbance, leukemia target, primary screen (AID 521); type: functional
T2 sequence (P35236 whole entry): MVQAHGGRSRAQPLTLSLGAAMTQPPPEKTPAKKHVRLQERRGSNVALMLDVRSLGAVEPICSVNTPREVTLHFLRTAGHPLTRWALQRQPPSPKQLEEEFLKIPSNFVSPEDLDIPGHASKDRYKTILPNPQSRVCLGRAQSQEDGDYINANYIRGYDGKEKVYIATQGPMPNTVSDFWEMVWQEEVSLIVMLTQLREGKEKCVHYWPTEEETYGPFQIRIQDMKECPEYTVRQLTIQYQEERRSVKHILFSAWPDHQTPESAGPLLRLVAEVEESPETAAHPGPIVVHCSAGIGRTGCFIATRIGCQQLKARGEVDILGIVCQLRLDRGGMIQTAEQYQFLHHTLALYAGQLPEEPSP

Bcl-2-related protein A1 [4] = biological target: T3, Bcl-2-related protein A1 (Mus musculus, UniProt Q07440); assay: Bfl-1 binding inhibitors, SAR follow-up, biochemical, fluorescence polarization (AID 1070)
T3 sequence (Q07440 whole entry): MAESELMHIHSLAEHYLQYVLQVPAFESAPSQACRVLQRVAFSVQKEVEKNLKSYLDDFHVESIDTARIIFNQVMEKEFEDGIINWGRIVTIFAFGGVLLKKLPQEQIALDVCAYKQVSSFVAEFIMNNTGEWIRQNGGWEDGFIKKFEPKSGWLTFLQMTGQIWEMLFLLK

Bcl-2-related protein A1 [5] = biological target: T3, Bcl-2-related protein A1; assay: small-molecule antagonists of Bfl-1/BH3 interaction – biochemical, TR-FRET, mouse Bfl-1, confirmation (AID 621);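 also: TR-FRET binding of GST-Bfl-1 to FITC-labelled Bid peptide via terbium antibody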
[6] = biological target: Glyceraldehyde-3-phosphate dehydrogenase (Homo sapiens, UniProt P04406)
Sequence of Glyceraldehyde-3-phosphate dehydrogenase (P04406 whole entry): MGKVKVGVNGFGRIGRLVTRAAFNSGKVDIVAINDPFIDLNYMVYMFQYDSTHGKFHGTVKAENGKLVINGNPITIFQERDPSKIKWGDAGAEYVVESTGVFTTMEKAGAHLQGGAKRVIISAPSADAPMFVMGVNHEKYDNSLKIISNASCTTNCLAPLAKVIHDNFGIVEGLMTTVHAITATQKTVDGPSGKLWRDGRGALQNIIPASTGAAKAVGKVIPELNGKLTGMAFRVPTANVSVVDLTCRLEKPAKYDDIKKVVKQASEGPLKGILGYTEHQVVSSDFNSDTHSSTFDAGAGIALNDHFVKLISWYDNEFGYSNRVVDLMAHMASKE

[7] = biological target: T4, Microphthalmia-associated transcription factor (Homo sapiens, UniProt O75030); assay: reducers of TRPM1 reporter luminescence, concentration series – cell-based, SK-MEL-5, cherry-picked, set 3, MITF inhibitor project, dose response (AID 493073); type: functional;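 also: SK-MEL-5 melanoma cells with luciferase driven by the MITF target TRPM1 promoter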
T4 sequence (O75030 whole entry): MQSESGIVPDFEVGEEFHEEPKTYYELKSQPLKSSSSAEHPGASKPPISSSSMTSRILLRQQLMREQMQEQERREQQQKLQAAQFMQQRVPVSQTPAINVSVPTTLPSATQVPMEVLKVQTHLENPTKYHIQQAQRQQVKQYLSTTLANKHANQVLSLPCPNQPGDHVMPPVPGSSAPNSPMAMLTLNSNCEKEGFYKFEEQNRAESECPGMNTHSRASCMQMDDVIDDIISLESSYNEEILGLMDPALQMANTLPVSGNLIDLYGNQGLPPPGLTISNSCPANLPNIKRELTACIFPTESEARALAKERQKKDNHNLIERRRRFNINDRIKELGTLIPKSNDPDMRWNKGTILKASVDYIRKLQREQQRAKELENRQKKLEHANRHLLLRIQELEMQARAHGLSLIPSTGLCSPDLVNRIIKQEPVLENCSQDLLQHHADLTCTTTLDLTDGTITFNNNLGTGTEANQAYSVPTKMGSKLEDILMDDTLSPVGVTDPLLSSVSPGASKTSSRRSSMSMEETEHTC

[8] = biological target: T5, RNA-editing ligase 1, mitochondrial (Trypanosoma brucei brucei, UniProt P86926); assay: inhibition of trypanosome RNA editing ligase – biochemical, fluorescence, Trypanosoma brucei, dose response (AID 1117295); type: functional
T5 sequence (P86926 whole entry): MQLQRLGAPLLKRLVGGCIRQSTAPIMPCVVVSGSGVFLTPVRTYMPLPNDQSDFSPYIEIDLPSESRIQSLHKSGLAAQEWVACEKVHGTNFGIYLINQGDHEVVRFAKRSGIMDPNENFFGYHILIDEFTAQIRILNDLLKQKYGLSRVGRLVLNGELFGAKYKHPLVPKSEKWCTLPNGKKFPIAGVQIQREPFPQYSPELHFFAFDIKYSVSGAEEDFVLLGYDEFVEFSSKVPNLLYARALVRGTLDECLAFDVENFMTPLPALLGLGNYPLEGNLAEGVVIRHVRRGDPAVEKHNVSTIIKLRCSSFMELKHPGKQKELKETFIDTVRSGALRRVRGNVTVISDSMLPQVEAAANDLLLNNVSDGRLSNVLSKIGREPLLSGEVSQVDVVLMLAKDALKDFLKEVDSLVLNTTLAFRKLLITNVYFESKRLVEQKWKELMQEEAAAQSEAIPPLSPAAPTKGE

SMILES: NC(=O)c1c(NC(=O)Cc2cccs2)sc2c1CCC2
- IC50 (Protein Tat): > 100 µM (active)
- IC50 [1]: 28.3 µM (not active)

SMILES: Cc1ccc(NNC(=O)C(O)(c2cccc(C(F)(F)F)c2)c2cccc(C(F)(F)F)c2)cc1
- CC50 (Vero): 29.8 µM (active)
- AC50 [2]: 1.14 µM (active)

SMILES: O=C1C(Cl)=C(Cl)C(=O)N1c1ccc(Cl)nc1
- IC50 (Bcl-2-related protein A1 [4]): > 100 µM (not active)
- IC50 (Bcl-2-related protein A1 [5]): 33.8 µM (active)
- IC50 [6]: > 100 µM (not active)

SMILES: CC1CCN(C2CC(=O)N(c3ccc(Cl)c(Cl)c3)C2=O)CC1 (centres undefined)
- IC50 (Bcl-2-related protein A1 [4]): > 100 µM (not active)
- IC50 (Bcl-2-related protein A1 [5]): > 100 µM (not active)
- IC50 [6]: > 100 µM (not active)

SMILES: Cc1n[nH]c(C)c1S(=O)(=O)N1CCCC(C(=O)Nc2ccc3c(c2)OCCO3)C1 (centres undefined)
- IC50 [3]: > 100 µM (not active)

Second part, the molecule after the results:

- IC50 [3]: > 100 µM (not active)
SMILES: CN(Cc1nc(-c2cccnc2)no1)S(=O)(=O)c1ccc(Br)cc1

- AC50 [7]: 18.2 µM (active)
- IC50 [8]: > 96.6 µM (inactive)
SMILES: COc1ccc2nc(C)cc(NCc3cccc(C(F)(F)F)c3)c2c1
